# Entries after “also recorded” stand apart in the source; their conditions may differ.
# What was measured:
# PKC binding to RACK1 = assay: Overlay / overlay-extraction assay: inhibition of PKC binding to recombinant RACK1 by peptides; parameters: species or system rat; settings: for inhibition of the binding of PKC to RACK1, peptides rI-rVII: overlay assay, concentration not given
# Procedure: (§1) Purified recombinant RACK1 protein (100-250 μg per lane, produced as detailed in Example 2) was subjected to SDS/PAGE and blotted onto nitrocellulose membranes (Ausubel). The nitrocellulose membranes were cut into strips, which were incubated for 0.5 hr in overlay buffer (Example 1) in the presence or absence of a mixture of PKC isozymes (α, β, γ, ε and .zeta., ~10 nM each final concentration) and PKC activators (60 μg/ml phosphatidylserine (PS), 2 μg/ml diacylglycerol (DG), and 1 mM CaCl2). Unbound material was removed by five washes, 5-min each, in overlay wash buffer. Where indicated, PKC activators were present during the incubation of PKC with the nitrocellulose strips. The conditions for each sample and corresponding results are presented in part D below.
# The variation in the overlay protocol consisted of incubating the putative binding peptides with a mixture of PKC isozymes for 15 minutes at room temperature before the mixture was used to contact the nitrocellulose strips containing immobilized RACK1.
# Nitrocellulose strips containing immobilized RACK1, that had been contacted with a solution containing a mixture of PKC isozymes, were washed and the area corresponding to the 36 kDa (RACK1-containing) band was cut out. The pieces (containing PKC/RACK1 complexes) were incubated with sample buffer for 10 minutes at 80° C. The sample buffer and the nitrocellulose pieces were then placed in wells in the PAGE gel and subjected to SDS-PAGE to elute the bound proteins. The gel was blotted onto nitrocellulose and a Western blot analysis was carried out using the mixture of antibodies (specific for PKC α, β, γ, δ, ε and .zeta. isozymes) described in Example 1 part B. Bound antibodies were detected by ^125 I-protein A.
# Peptides derived from or homologous to WD-40 repeats of RACK1 were tested for their ability to inhibit PKC binding to recombinant RACK1. Binding of PKC to RACK1 was carried out using a variation of the overlay procedure described in Example 3 part B. In the experimental samples, peptides were incubated with a solution containing a mixture of rat brain PKC isozymes (~10 nM each) for 15 minutes at room temperature.
# Following completion of the modified overlay protocol, the samples were subjected to the overlay-extraction protocol detailed in part B, above.
# βPKC [1] = biological target: T1, βPKC (Rattus norvegicus, UniProt P68403); assay: Overlay assay: binding of PKC to immobilized recombinant RACK1; parameters: from tissue; host or cells: PKC from rat brain; RACK1 made in-house in TB1 E. coli (pMAL-c2)
# Procedure: as §1
# PKC bound to RACK1 immobilized on nitrocellulose strips was detected as follows. […]
# The concentration dependence of PKC binding to RACK1 was characterized with βPKC, since this isozyme is a major component of the PKC mixture used for the overlay assay. The mean half maximal binding was ~0.375 nM, and maximal binding was ~4 nM (n=3; values reflect binding of βPKC isozyme in the presence of other PKC isozymes and was determined by scanning autoradiograms in the linear range of detection, as described in Mochly-Rosen, et al., (1991).
# [2] = tested on: PKC-mediated germinal vesicle breakdown (GVBD) in Xenopus oocytes; assay: PKC-mediated Xenopus oocyte maturation (germinal vesicle breakdown, GVBD) after peptide microinjection; format: cell-based
# Procedure: Exposure to insulin induces maturation in Xenopus oocytes via a PKC-dependent pathway (Smith, et al., 1992). The maturation response may be quantified by monitoring the appearance of a white spot in the animal hemisphere of the oocyte, indicating germinal vesicle breakdown (GVBD) and maturation. To assess the effects of RACK1 WD-40-derived peptides on insulin-induced PKC-mediated maturation, 50 nl of a 20 mM NaCl solution containing the indicated peptides [peptide I (SEQ ID NO:1; .circle-solid.), peptide rVI (SEQ ID NO:7; .box-solid.), or injection solution (.quadrature.)] […] One hour following the peptide injections, the oocytes were exposed to a solution containing insulin (8.25 μg/ml) for 2 minutes (t=0). 10-15 oocytes were used for each sample.
# The data, representative of three independent experiments, are expressed as the percent of oocytes with GVBD following insulin exposure and are plotted as a function of time in FIG. 5.
# PKC [3] = assay: PKC autophosphorylation; format: biochemical, rat; settings: 10 μM peptide; no PS, DG, calcium
# Procedure: Rat brain PKC (~10 nM) was incubated with mild agitation in a final volume of 250 μl of overlay buffer, as in Example 1 either with anti-βPKC pseudosubstrate antibodies (1:10 dilution, Life Technologies, Gaithersburg, Md.) or with the indicated peptide (10 μM). Where indicated, PS (50 μg/ml), DG (0.8 μg/ml) and CaCl2 (1 mM) were also added. The amount of autophosphorylation was determined after 2 hours for the reaction with the anti-pseudosubstrate antibodies, or after 15 minutes for the other samples. 50 μl of a buffer comprised of 20 mM Tris-HCl (pH 7.5), 20 mM MgCl2, 20 μM ATP and 5 μci/ml [γ-^32 P]ATP. The mixture was incubated for 15 minutes at room temperature and the reaction was stopped by adding 60 μl sample buffer (see Example 9). The samples were then boiled for 10 minutes, loaded onto a 10% SDS-PAGE mini gel and electrophoresed. The gel was fixed with 50% methanol and 10% acetic acid for 1 hour, and the autophosphorylation of PKC was determined by autoradiography.
# βPKC [4] = biological target: T1, βPKC; assay: Sensitivity of βPKC to Arg-C endopeptidase (nicking); format: biochemical; parameters: All the solutions contained 5 nM rat brain PKC in peptide overlay buffer; from tissue; host or cells: rat brain; settings: 2.5 μg/ml PS and 50 μM CaCl2; peptide 10 μM; Arg-C 5 units/ml
# Text: Upon activation of PKC, a pseudosubstrate autoinhibitory sequence at the N-terminus of the molecule dissociates from the catalytic site and becomes sensitive to endopeptidase Arg-C (Orr, et al.). In the absence of PKC activators, exposure of the 80 kDa βPKC to endopeptidase Arg-C has no effect on the enzyme (see FIG. 7, lane 1). In the presence of the PKC activators PS, DG and calcium, however, exposure of βPKC to Arg-C results in a "nicking" of the PKC (i.e. limited proteolysis generating a 78 kDa fragment and several small fragments (see FIG. 7, lane 2)). Continued exposure to Arg-C results in the disappearance of βPKC (Orr, et al.). The present experiment tests whether peptides derived from the WD-40 region of RACK1 alter the sensitivity of βPKC to endopeptidase Arg-C.
# The methods used to assay Arg-C sensitivity are a modification of methods described by Orr, et al. Rat brain PKC (~5 nM) was incubated at room temperature in 500 μl of 20 mM Tris-HCl buffer (pH 7.5) alone or with Arg-C (5 units/ml) in the presence or absence of the indicated peptides (final concentration 10 μM or as indicated), PS, DG, and calcium (as indicated). 50 μl aliquots were removed into 20 μl of sample buffer during the reaction as indicated (samples in all the lanes were incubated for 30 minutes, except lanes 5, and 6, which were incubated for 5 and 15 minutes, respectively). The samples were boiled for 10 minutes at 80° C. and loaded onto 8% SDS-PAGE. βPKC was detected by Western blot analysis using anti-βPKC antibodies as described in Examples 6 and 8.
# PKC was incubated for the indicated time alone (lane 1) or in the presence of Arg-C (lanes 2-9), with DG (0.8 μg/ml), PS (50 μg/ml) and CaCl2 (1 mM; lane 2), with PS (50 μg/ml) and CaCl2 (1 mM; lane 3), with PS (2.5 μg/ml) and CaCl2 (50 μM; lane 4); with PS (2.5 μg/ml), CaCl2 (50 μM) and with either peptide rVI (SEQ ID NO:7; 10 μM; lanes 5-7), control peptide (SEQ ID NO: 9; lane 8) or with peptide I (SEQ ID) NO:1; lane 9).
# δ and εPKC isozymes = assay: PKC isozyme translocation and degradation in cardiac myocytes; format: cell-based, rat
# Text: This peptide-induced translocation was followed by degradation of δ and εPKC isozymes.
# PKC [5] = assay: Histone type IIIs phosphorylation by PKC; format: biochemical; settings: peptide rVI 10 μM; PKC ~10 nM
# Procedure: Histone type IIIs (Sigma Chemical Company, St. Louis, Mo.) was phosphorylated by PKC (~10 nM) in the absence (lane 1) and presence of peptide rVI (10 μM) (lanes 2 and 3) and in the presence and absence of DG (0.8 μg/ml), PS (50 μg/ml) and CaCl2 (1 mM) (lane 3). The results are expressed as percentage of control that is the amount of Histone phosphorylation by PKC in the presence of DG (0.8 μg/ml), PS (50 μg/ml) and CaCl2 (1 mM). The results are the average±SEM of two independent experiments. PKC was first incubated with the peptide rVI (10 μM) for 15 minutes in overlay buffer as described above. Histone type IIIs (40 μg/ml) was added in Tris-HCl (20 mM), MgCl2 (20 mM), ATP (20 μM) and [γ-^32 P]ATP (5 μci/ml) with or without PS (50 μg/ml), DG (0.8 μg/ml) and CaCl2 (1 mM). Histone phosphorylation was determined by autoradiography as above.
# [6] = 50 μM peptide microinjected, insulin 8.25 μg/ml
# [7] = peptide introduced into cardiac myocytes
compound,measurement,setting,value
peptide rI: synthetic peptide based on the corresponding region in WD-40 repeat I of RACK1 (VTQIATT),"inhibition of the binding of PKC to RACK1, peptides rI-rVII",PKC binding to RACK1,effective inhibitors
peptide rII: synthetic peptide based on the corresponding region in WD-40 repeat II of RACK1 (FVSDVVI),"inhibition of the binding of PKC to RACK1, peptides rI-rVII",PKC binding to RACK1,effective inhibitors
maltose binding protein,binding of PKC to control proteins,βPKC [1],did not bind PKC
control peptide: control peptide (SEQ ID NO:9) used as negative control (LKGKIL) [reference compound],delay to onset of maturation after exposure to insulin,[2]; [6],4 to 5 h
same,time at which plateau of GVBD is reached,[2]; [6],10 to 12 h
same,plateau of % GVBD following insulin exposure,"[2]; 50 nl of 50 μM peptide microinjected, insulin 8.25 μg/ml",85-90 % GVBD
same,induction of PKC autophosphorylation in the absence of PKC activators,PKC [3],Neither peptide I nor control peptide induced PKC autophosphorylation
same,nicking of βPKC by Arg-C (78 kDa fragment) at low concentrations of activators,βPKC [4],nicking of βPKC did not occur
peptide rVII: synthetic peptide based on the corresponding region in WD-40 repeat VII of RACK1 (PQCTSLA),"inhibition of the binding of PKC to RACK1, peptides rI-rVII",PKC binding to RACK1,no inhibition
peptide rV: synthetic peptide based on the corresponding region in WD-40 repeat V of RACK1 (GYLNTVT),"inhibition of the binding of PKC to RACK1, peptides rI-rVII",PKC binding to RACK1,lesser inhibitory effect
"NC[C@H](O)c1ccc(O)c(O)c1 [norepinephrine, reference compound]",translocation of δ and εPKC isozymes from the cytosolic to the particulate fraction,"δ and εPKC isozymes; NE, 2 μM",causes translocation of δ and εPKC isozymes from the cytosolic to the particulate fraction
peptide rIII: seven amino acid peptide identical to a segment of RACK1 WD-40 repeat III (DVLSVAF),relative effectiveness in inhibiting PKC binding to RACK1,PKC binding to RACK1; 10 μM peptide,somewhat more effective than peptide rVI
same,inhibition of PKC binding to RACK1 (FIG. 3),PKC binding to RACK1; 10 μM peptide preincubated with PKC,inhibit the binding of PKC to RACK1
same,"inhibition of the binding of PKC to RACK1, peptides rI-rVII",PKC binding to RACK1,inhibited the binding of PKC to RACK1
same,effect on insulin-induced oocyte maturation,[2]; peptide microinjected (rVI 50 μM; rIII 50 and 500 μM),enhances insulin-induced oocyte maturation; also recorded: potentiated the effects of insulin on oocyte maturation
same,fraction of oocytes exposed to insulin that reach maturation,"[2]; peptide microinjected, insulin",~100%
same,"induction of PKC-mediated histone phosphorylation in the absence of PS, DG and calcium",PKC [5],similarly induced histone phosphorylation
same,effect on NE-induced translocation of PKC isozymes,"δ and εPKC isozymes; norepinephrine 2 μM, peptide introduced into cardiac myocytes",further enhanced
same,degradation of δ and εPKC isozymes,δ and εPKC isozymes; [7],followed by degradation of these activated isozymes
same,translocation / distribution of δ and εPKC isozymes in the absence of hormone stimulation,δ and εPKC isozymes; [7],caused an immediate translocation of δ and εPKC isozymes
same,nicking of βPKC by Arg-C (78 kDa fragment) at low concentrations of activators,βPKC [4],resulted in the appearance of the 78 kDa nicked PKC fragment
rIV: synthetic peptide based on the corresponding region in WD-40 repeat IV of RACK1 (VSCVRFS),"inhibition of the binding of PKC to RACK1, peptides rI-rVII",PKC binding to RACK1,lesser inhibitory effect

# From patent publication US6262023A, “WD-40 derived peptides and uses thereof” (The Board of Trustees of the Leland Stanford Junior …, priority 1995, dated 2001)
